Marks after values point to notes of the source that are not given here.
Assays:
[1] = Plasma 1,25-D3 concentration in mice after a single oral dose (RIA)
[2] = test system: β-glucuronidase activity, duodenum lumen contents; assay: β-glucuronidase cleavage in duodenum lumen contents, free 1,25-D3 by RIA; type: in vitro ADME, rats; details: 2100 pg added
Description: The proximal 25 cm of duodenum/jejunum, the caudal 12 cm of ileum, and the cranial 12 cm of colon were removed. The contents from the lumen of each section were flushed with 3 ml water, collected, and pooled. Three-ml aliquots of intestinal contents were placed into tubes. To the tubes, either 2100 pg (3.53 pmoles) β-gluc-1,25-D3 was added and incubated at 37° C. for 0, 1, 3, or 6 hrs, or 150 pg (0.36 pmoles) of 1,25-D3 was added and incubated for 0 or 6 hrs. […] Acetonitrile (3 ml) was added to each tube after incubation to end all enzymatic activity, after which the 1,25-D3 was extracted. Tritiated 1,25-D3 was added to each tube to assess extraction efficiency. The preparations were cleaned by HPLC, and the samples were analyzed for 1,25-D3 content by RIA (Heartland Assays, Ames, Iowa) (Hollis et al., J. Steroid Biochem. Mol. Biol. 2007 103(3-5):473-6).

4T1 tumor cells = assay: 4T1 mammary tumor growth in BALB/c mice; type: in vivo; details: 280 ng/day s.c. daily, eight days
Description: 4T1 tumor cells, originally isolated from a BALB/cfC3H mouse mammary gland, were obtained from American Tissue Culture Collection (Manassas, Va.). The tumor growth and metastatic spread of 4T1 cells in BALB/c mice very closely mimic human breast cancer. This syngeneic tumor graft is an animal model for stage 1V human breast cancer (Pulaski et al. Cancer Res. 1998, 58:1486-1493). The cells were grown in RPMI-1640 media supplemented with 10% fetal bovine serum. When cell growth reached about 70% confluency, the cells were lifted from the flasks with standard removing medium and rinsed with 0.25% trypsin, 0.53-mM EDTA solution (trypsin-EDTA solution). This solution was removed and an additional 1 to 2 ml of trypsin-EDTA solution was added. The flask was allowed to sit at 37.0° C. until the cells detached. Fresh culture medium was added, and the cells were aspirated for enumeration using a hemocytometer. RPMI-1640 and Matrigel (BD Biosciences, Bedford, Mass.) solutions were prepared and maintained at 4° C. to keep the Matrigel liquid. […] Sixteen days after implantation of the cells, tumors approximately 0.5-0.7 cm in diameter (as measured with calipers) formed under the skin of many of the mice. […]

Cyp24 = Cyp24 mRNA expression in duodenum of mice after a single oral dose; type: in vivo; details: for Cyp24 expression in the duodenum, induction over control mice: 24 pmol per os
Description: Mice were decapitated 6 hrs later following light anesthesia under inhaled halothane. […] Tissue samples were flushed with ice-cold phosphate-buffered saline and immediately homogenized in 1 ml of TRIzol® reagent (Invitrogen Corp., Carlsbad, Calif.). Samples were then kept frozen at −86° C. prior to processing for RNA. For processing RNA, each TRIzol® homogenate was thawed at room temperature and 500 μl placed in a clean microfuge tube, mixed thoroughly with 100 μl chloroform for 15 sec and then centrifuged at 12,000×g for 15 min at 4° C. The upper aqueous phase was removed and mixed with 0.93 volumes of 75% EtOH. The mixture was then applied to an RNeasy spin column (Qiagen Inc., Germantown, Md.) and processed as described by the manufacturer with the exception that an additional wash with 2M NaCl/2 mM EDTA (pH 4.0) was included (Das et al. J Vet Diagn Invest. 2009; 21:771-778). RNA was eluted in 50 μl of water and the concentration obtained by UV spectrometry. One microgram of RNA was then used as a template for production of cDNA in a 20-μl reaction volume using random hexamers and Superscript III as described by the manufacturer (Invitrogen, Carlsbad, Calif.). Afterwards, samples were diluted to 100 μl final volume with TE buffer and stored at −20° C. prior to PCR analysis. Quantitative real-time RT-PCR was performed using a Stratagene Mx3005p cycler (Stratagene, La Jolla, Calif.) and PerfeCTa® SYBR® Green FastMix®, ROX reagent (Quanta Biosciences, Gaithersburg, Md.). Amplification of target cDNAs was accomplished with the following primers: Aliquots (8.3 ng) of cDNA were amplified under the following conditions: 95° C. for 30 sec, followed by 45 cycles of 95° C. for 1 sec and 57° C. for 30 sec. […] Oligonucleotides were obtained from Integrated DNA Technologies (Coralville, Iowa).

[3] = test system: DSS-induced inflammation of the lower colon; assay: Dextran sodium sulfate (DSS) mouse model of IBD; type: in vivo; details: DSS mice; for Fecal Blood Score: scale 0-3
Text: In this example, β-gluc-1,25-D3 compounds, alone or in combination with 25-β-glucuronide-25-hydroxyvitamin D3 compounds (hereinafter β-gluc-25-D3) were incorporated into the diet of mice and compared to equimolar 1,25-D3 with respect to therapeutic effects on IBD and induction of calcemia. A standard mouse model of IBD comprising administering dextran sodium sulfate (DSS) to induce inflammation of the lower colon was used to study these effects. Vitamin D treatments were first initiated for 4 days. After 4 days, mice were fed DSS-water for 7 days, allowed one day to recover, and sacrificed. Colon length, plasma calcium, fecal blood score, and body weight were assayed. Colon length is a standard marker of intestinal inflammation in the literature, with shortened colon length being an indicator of inflammation. A 1-cm section of the mid-colon was removed, fixed in formalin, and stained with hematoxylin & eosin for microscopic histopathologic evaluation by a veterinary pathologist blinded to the treatments. Each tissue section received a score from 0 to 4 reflecting absence of lesion to severe, extensive lesion for each of three criteria: (1) the degree of erosion/ulceration of colon mucosa; (2) the degree of infiltration of the tissues by inflammatory cells; and (3) the degree of submucosal edema. The sum of the score of each of these criteria constitutes the histopathological score for the tissue with a zero score representing normal tissue based on all criteria, and the worst possible outcome being a score of 12.

## C=C1/C(=C\C=C2/CCC[C@]3(C)[C@@H]([C@H](C)CCCC(C)(C)O[C@@H]4O[C@H](C(=O)O)[C@@H](O)[C@H](O)[C@H]4O)CC[C@@H]23)C[C@@H](O)C[C@@H]1O [β-gluc-1,25-D3, 25-β-glucuronide-1,25-dihydroxyvitamin D3]
[1]; 6 pmol per os, 6 hr time point
  plasma 1,25-D3 concentration: not significantly increased
[1]; 24 pmol per os
  peak plasma 1,25-D3, fold over control mouse plasma 1,25-D3: 3.5 fold
  peak plasma concentration of 1,25-D3: 325 pg/mL
  time of peak plasma 1,25-D3 concentration: approximately 3 hr
[1]; 24 pmol per os, 24 hrs after treatment
  plasma 1,25-D3 concentration: slightly below the concentration observed in control animals
[1]; 6 hrs following treatment, each dose 6-48 pmol
  levels of 1,25-D3 in the blood, 1,25-D3 versus β-gluc-1,25-D3: comparable at each concentration
[2]; 0 hrs incubation
  Measured Free 1,25-dihydroxy vitamin D: 29 pg
[2]; 1 hr incubation
  Measured Free 1,25-dihydroxy vitamin D: 38 pg
[2]; 3 hrs incubation
  Measured Free 1,25-dihydroxy vitamin D: 63 pg
[2]; 6 hrs incubation
  Measured Free 1,25-dihydroxy vitamin D: 105 pg
4T1 tumor cells; BALB/c mice
  tumor weight mean±SEM: 2.01 ± 0.36 g
4T1 tumor cells; P=0.034
  effect on the growth of 4T1 tumor cells: significant anti-proliferative effect
Cyp24; 3 hours
  Cyp24 expression in the duodenum, induction over control mice: 1300 fold
Cyp24; 6 hours
  Cyp24 expression in the duodenum, induction over control mice: 500 fold
Cyp24; 6, 12, 24, 48 pmol per os, 6 hrs
  induction of Cyp24 in the duodenum versus analogous dose of 1,25-D3: consistently less effective than the analogous dose of 1,25-D3
[3]; 14 ng/day
  Histopathology score (0-12): 6.66 ± 0.53^c
  Fecal Blood Score: 0.55 ± 0.26
[3]; 14 ng/day in diet
  Colon Length: 5.78 ± 0.09 cm
  Final Body Weight: 21.91 ± 0.49 g
[3]; 70 ng/day
  Histopathology score (0-12): 6.33 ± 0.74^c
  Fecal Blood Score: 0.22 ± 0.08^c
[3]; 70 ng/day in diet
  Colon Length: 5.41 ± 0.15 cm
  Final Body Weight: 21.00 ± 0.68 g
[3]; 350 ng/day
  Histopathology score (0-12): 8.33 ± 0.64
  Fecal Blood Score: 0.88 ± 0.43
[3]; 350 ng/day in diet
  Colon Length: 4.72 ± 0.15 cm
  Final Body Weight: 19.62 ± 0.69 g
[3]; alone at 70 ng/day
  reducing inflammation: numerically better than 1,25-D3

Source: patent US20110152207A1, “USE OF VITAMIN D GLYCOSIDES AND SULFATES FOR TREATMENT OF DISEASE” (priority 2009, published 2011)
